The values below come from patent US8552199B2, “Substituted indanes, method for the production thereof, and use thereof as drugs” (Sanofi, priority 2009, dated 2013).

The experiment concerns the target human MCH receptor (Homo sapiens (Human), UniProt Q99705). The experiment is described as follows: calcium mobilization assay (FLIPR); functional IC50 values of MCH1R antagonists. Conditions: recombinant HEK293 cell line expressing the human MCH receptor, cellular calcium flux after addition of agonist (MCH). It is filed as cell-based. From the text: Influence on the MCH Receptor in vitro; Determination of Functional IC50 Values of MCH1R Antagonists
Cloning of the cDNA for the human MCH receptor, preparation of a recombinant HEK293 cell line which expresses the human MCH receptor, and functional measurements with the recombinant cell line took place in analogy to the description by Audinot et al. (J. Biol. Chem. 2001, 276, 13554-13562). A difference from the reference was, however, the use of the plasmid pEAK8 from EDGE Biosystems (USA) for the construction of the expression vector. The host used for the transfection was a transformed HEK cell line named “PEAK Stable Cells” (likewise from EDGE Biosystems). Functional measurements of the cellular calcium flux after addition of agonist (MCH) in the presence of ligand of the invention took place with the aid of the FLIPR apparatus from Molecular Devices (USA), using protocols of the apparatus manufacturer. The compounds of the invention show a significant inhibition (>30%) of the signal induced by the agonist at a concentration of 100 μM, preferably at 10 μM, particularly preferably at 1 μM, very particularly preferably at 100 nM and very very particularly preferably at 10 nM.

Structures are written as SMILES.

Sequence of human MCH receptor (Q99705 whole entry): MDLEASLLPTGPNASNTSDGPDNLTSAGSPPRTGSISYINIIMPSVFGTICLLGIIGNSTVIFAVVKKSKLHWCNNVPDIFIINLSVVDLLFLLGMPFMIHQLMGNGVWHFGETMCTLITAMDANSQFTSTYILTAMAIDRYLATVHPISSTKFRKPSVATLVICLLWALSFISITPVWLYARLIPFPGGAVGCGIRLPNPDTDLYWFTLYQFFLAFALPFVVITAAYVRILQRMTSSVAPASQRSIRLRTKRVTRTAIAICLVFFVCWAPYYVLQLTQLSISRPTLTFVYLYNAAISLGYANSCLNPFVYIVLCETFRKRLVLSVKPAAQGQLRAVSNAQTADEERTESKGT

Take `CCCCOc1ccc(C(=O)N(C)[C@@H]2Cc3ccc(CN4C[C@@H]5CC[C@H]4C5)cc3C2)nc1` [Example 1-62]: the IC50 was determined as 173 nM.

For `O=C(N[C@@H]1Cc2ccc(CNCCC3CC3)cc2C1)c1ccc(OCC2CC2)cn1` [Example 1-55], the IC50 amounted to 848 nM. Under `CN(C(=O)c1ccc(OCC2CC2)cc1)[C@@H]1Cc2ccc(CNCC(C)(C)C)cc2C1` [Example 1-23] stands 144 nM.

For `O=C1c2ccc(OC[C@@H]3CCCO3)cc2CCN1[C@@H]1Cc2ccc(CNC3CCCCC3)cc2C1` [Example 1-90], the half-inhibitory concentration (IC50) was found to be 777 nM. In the case of `CN1CCCC1c1ccc2c(c1)C[C@H](N(C)C(=O)c1ccc(OCC3CC3)cn1)C2` (stereo partly drawn) [Example 3-1, N-Methyl-N-[(R)-5-(1-methylpyrrolidin-2-yl)indan-2-yl]-5-cyclopropylmethoxypyridine-2-carboxamide] it was 1140 nM. In the case of `CN(C(=O)c1ccc(OCC2CC2)cc1)[C@@H]1Cc2ccc(CN3CC[C@H](O)C3)cc2C1` [Example 1-38] it was 115 nM; in that of `CCCCOc1ccc(C(=O)N(C)[C@@H]2Cc3ccc(CNCC4(C)CCOCC4)cc3C2)nc1` [Example 1-72], 147 nM; in that of `CN(C(=O)c1ccc(OCC2CC2)cc1)[C@@H]1Cc2ccc(CNCC3(C)CC3)cc2C1` [Example 1-34], 121 nM.

With `CC[C@H](C)NCc1ccc2c(c1)C[C@H](N(C)C(=O)c1ccc(OCC3CC3)cc1)C2` [Example 1-36], the 50% inhibitory concentration (IC50) worked out at 198 nM. In the case of `CN(C(=O)c1ccc(OCC2CC2)cc1)[C@@H]1Cc2ccc(CN3CCC(C(C)(C)O)CC3)cc2C1` [Example 1-05] it was 294 nM. With `CN(C(=O)c1ccc(OC[C@@H]2CCCO2)cc1)[C@@H]1Cc2ccc(CNCC(C)(C)C)cc2C1` [Example 1-46], the half-maximal inhibitory concentration (IC50) was found to be 144 nM. Under `CN(C(=O)c1ccc(OCC2CC2)cc1)[C@@H]1Cc2ccc(CN3CCCCCC3)cc2C1` [Example 1-09] stands 139 nM. Under `CC1(C)CCN(Cc2ccc3c(c2)C[C@H](NC(=O)c2ccc(OC[C@@H]4CCCO4)cc2)C3)CC1` [Example 1-40] stands 208 nM. In the case of `COCCCNCc1ccc2c(c1)C[C@H](N(C)C(=O)c1ccc(OCC3CC3)cc1)C2` [Example 1-27] it was 117 nM. As to `O=C(N[C@@H]1Cc2ccc(CN3CCCCCC3)cc2C1)c1ccc(OC[C@@H]2CCCO2)cn1` [Example 1-50], the IC50 amounted to 766 nM.

Take `CCCCOc1ccc(C(=O)N(C)[C@@H]2Cc3ccc([C@H]4CCCN4)cc3C2)cc1` [Example 2, 4-Butoxy-N-methyl-N-((R)-(R)-5-pyrrolidin-2-ylindan-2-yl)benzamide]: the concentration for half-maximal inhibition (IC50) came out at 255 nM. In the case of `CN(C(=O)c1ccc(OC[C@@H]2CCCO2)cc1)[C@@H]1Cc2ccc(CN3CC4CCC3CC4)cc2C1` [Example 1-47] it was 229 nM; in that of `CN(C(=O)c1ccc(OCC2CC2)cc1)[C@@H]1Cc2ccc(CN3CCC3)cc2C1` [Example 1-31], 111 nM; in that of `CCCCOc1ccc(C(=O)N(C)[C@@H]2Cc3ccc(CNC[C@@H]4CCCO4)cc3C2)nc1` [Example 1-66], 194 nM. As to `CC(C)(C)CNCc1ccc2c(c1)C[C@H](NC(=O)c1ccc(OC[C@@H]3CCCO3)cc1)C2` [Example 1-42], the IC50 was determined as 222 nM. On to `CN(C(=O)c1ccc(OCC2CC2)cc1)[C@@H]1Cc2ccc(CNCC3CCOCC3)cc2C1` [Example 1-15], for which the IC50 is 123 nM. In the case of `CN(C(=O)c1ccc(OCC2CC2)cn1)[C@@H]1Cc2ccc(CN3CCCCC3)cc2C1` [Example 1-81] it was 179 nM; in that of `CC1(CNCc2ccc3c(c2)C[C@H](NC(=O)c2ccc(OCC4CC4)cn2)C3)CC1` [Example 1-58], 1040 nM; in that of `CCN(C)Cc1ccc2c(c1)C[C@H](N(C)C(=O)c1ccc(OCC3CC3)cc1)C2` [Example 1-32], 147 nM.

As a reminder, the IC50 is the point on the concentration scale where inhibition reaches its midpoint.
